Test results from US10980239B2, “Decontamination solution and its use for denaturation, modification, degradation, solubilisation and removal of proteins, nucleic acid molecules and microorganisms” (MULTIBIND BIOTEC GMBH, priority 2005, dated 2021).

Assays:
Assay type in all cases: cell-based
[1] = test system: listed microorganisms (Escherichia coli, Bacillus subtilis, Saccharomyces cerevisiae, Candida parapsilosis); experiment: Test for the anti-microbial action, summary for all listed microorganisms; conditions: 10^6 cells mixed 1:1 with solution, 2 minutes incubation, plated, 1-3 days
Procedure: (§1) Freshly grown cultures of the listed microorganisms were adjusted to a cell number of 10^6 in a 50 μl volume and mixed in a ratio of 1:1 with 50 μl of water, 70% ethanol or the three component system (100 mM ascorbic acid, 10 mM FeCl3 and 0.5% SDS). After an incubation time of 2 minutes the 100 μl samples containing the microorganisms were plated onto the respective growth media. After an incubation period of 1-3 days at 28° C. (Saccharomyces cerevisiae and Candida parapsilosis) or 37° C. (Escherichia coli and Bacillus subtilis) the number of grown colonies was determined.

[2] = test system: recombinant Escherichia coli strain with an extra-chromosomal plasmid (YEp351); experiment: Degradation of genomic DNA and extra-chromosomal genetic material inside microorganisms (FIG. 8, gel electrophoresis); conditions: 5 μl E. coli suspension, lysozyme 5 minutes, then 5 μl solution for 5 minutes
Procedure: A recombinant Escherichia coli strain with an extra-chromosomal plasmid (YEp351) was grown over night in LB, amp medium. Aliquots of 5 μl from the E. coli suspension were treated with 5 μl lysozyme solution (1 mg/ml) for 5 minutes and subsequently incubated with 5 μl of the listed solutions (1-5) for additional 5 minutes. After addition of bromphenol blue the samples were loaded into the gel slots and separated by electrophoresis of the DNA molecules.
(M: Marker 1 Kb Ladder; C: Control with H2O; 1: 70% Ethanol; 2: 0.5% Bacillozid™; 3: 0.5% SDS; 4: 0.5% Na-Azide+0.5% SDS; 5: 100 mM vitamin C+10 mM FeCl3+0.5% SDS; C: Control: 5 μl sterile H2O)

Saccharomyces cerevisiae = experiment: Test for the anti-microbial action, colony count after plating; conditions: 10^6 cells in 50 μl mixed 1:1 with solution, 2 minutes incubation, plated, 1-3 days at 28° C.
Procedure: as §1

Bacillus subtilis = experiment: as above; conditions: 10^6 cells in 50 μl mixed 1:1 with solution, 2 minutes incubation, plated, 1-3 days at 37° C.
Procedure: as §1

Escherichia coli = experiment: as above; conditions: 10^6 cells in 50 μl mixed 1:1 with solution, 2 minutes incubation, plated, 1-3 days at 37° C.
Procedure: as §1

Row | Compound | living cell colonies, all listed microorganisms [1] | effect on cells and DNA molecules seen in the gel [2] | number of grown colonies (Saccharomyces cerevisiae) | number of grown colonies (Bacillus subtilis) | number of grown colonies (Escherichia coli)
1 | CCO [70% ethanol, ethanol] | did not show any living cell colony | precipitation of the lysate and the DNA | 0 | 0 | 0
2 | CCCCCCCCCCCCOS(=O)(=O)[O-].[Na+] [sample 3, Sodiumdodecylsulfate] |  | lysis of the cells is observed |  |  | 
